Test results taken from PMC10377034, “Syntheses of 25-Adamantyl-25-alkyl-2-methylidene-1α,25-dihydroxyvitamin D3 Derivatives with Structure–Function Studies of Antagonistic and Agonistic Active Vitamin D Analogs” (Biomolecules, 2023).
Like-named read-outs stand apart in the source and are kept apart here.

Columns and labels:
VDR with NCoR = target: T1, VDR with NCoR (Homo sapiens, UniProt P11473); test: Mammalian two-hybrid assay, dissociation of NCoR from the VDR
T1 sequence (P11473 1-427): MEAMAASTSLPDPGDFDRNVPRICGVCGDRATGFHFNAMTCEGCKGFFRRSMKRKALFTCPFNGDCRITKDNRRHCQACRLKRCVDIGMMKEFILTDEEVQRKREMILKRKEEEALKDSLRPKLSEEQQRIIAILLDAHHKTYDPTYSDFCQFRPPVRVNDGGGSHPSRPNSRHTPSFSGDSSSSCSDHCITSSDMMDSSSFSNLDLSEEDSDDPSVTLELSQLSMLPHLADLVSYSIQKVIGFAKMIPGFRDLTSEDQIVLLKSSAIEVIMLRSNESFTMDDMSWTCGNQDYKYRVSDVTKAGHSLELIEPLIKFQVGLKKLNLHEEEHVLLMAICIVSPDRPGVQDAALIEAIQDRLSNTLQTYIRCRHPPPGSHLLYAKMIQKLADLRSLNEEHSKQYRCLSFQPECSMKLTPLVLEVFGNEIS

hVDR = target: T2, hVDR (Homo sapiens, UniProt P11473); test: VDR transactivation luciferase reporter assay in HEK293 cells (SPP×3-tk-LUC); format: cell-based; conditions: for Transcriptional activity efficacy: 1,25(OH)2D3 = 100%; for Emax: read-out: Transcriptional Activity % Efficacy of That of 1 (converted)
T2 construct: expressed in transfected cells; host or cells: HEK293
T2 sequence (P11473 1-427): T1 sequence (P11473 1-427)
Method: The transcriptional activity of the 25-alkylvitamin D analogs on the VDR was evaluated via a luciferase reporter assay in HEK293 human kidney cells transfected with an hVDR expression vector and a luciferase reporter with mouse osteopontin vitamin D response elements (VDREs, SPP×3-tk-LUC).
Transfections of 50 ng of TK-Spp × 3-LUC reporter plasmid, 10 ng of pCMX-β-galactosidase, and 15 ng of pCMX-VDR for each well of a 96-well plate were performed in HEK293 cells using the calcium phosphate coprecipitation method, as described previously. The mammalian two-hybrid assay for cofactor interaction with VDR used 50 ng of TK-MH100(UAS) × 3- LUC reporter plasmid, 10 ng of pCMX-β-galactosidase, 15 ng of pCMX-GAL4-RXRα, pCMX-GAL4-SRC1, or pCMX-GAL4-NCoR, and 15 ng of pCMX-VP16-VDR for each well of a 96-well plate. Luciferase and β-galactosidase activities were measured with a luminometer and a microplate reader (Molecular Devices, Sun Jose, CA, USA), respectively. Luciferase values were normalized to the internal β-galactosidase control.
HEK293 cells were co-transfected with TK-Spp × 3-LUC reporter plasmid and pCMX−VDR, and 8 h after transfection the cells were treated with several concentrations of each compound. After 24 h, the cells were harvested for assaying luciferase and β-galactosidase activity using a luminometer (Molecular Devices, Sunnyvale, CA, USA).

VDR with RXRα = target: T3, VDR with RXRα (Homo sapiens, UniProt P11473); test: Mammalian two-hybrid assay, interaction of the VDR with RXRα
T3 sequence (P11473 1-427): T1 sequence (P11473 1-427)
T3 sequence (P19793 1-462 partner): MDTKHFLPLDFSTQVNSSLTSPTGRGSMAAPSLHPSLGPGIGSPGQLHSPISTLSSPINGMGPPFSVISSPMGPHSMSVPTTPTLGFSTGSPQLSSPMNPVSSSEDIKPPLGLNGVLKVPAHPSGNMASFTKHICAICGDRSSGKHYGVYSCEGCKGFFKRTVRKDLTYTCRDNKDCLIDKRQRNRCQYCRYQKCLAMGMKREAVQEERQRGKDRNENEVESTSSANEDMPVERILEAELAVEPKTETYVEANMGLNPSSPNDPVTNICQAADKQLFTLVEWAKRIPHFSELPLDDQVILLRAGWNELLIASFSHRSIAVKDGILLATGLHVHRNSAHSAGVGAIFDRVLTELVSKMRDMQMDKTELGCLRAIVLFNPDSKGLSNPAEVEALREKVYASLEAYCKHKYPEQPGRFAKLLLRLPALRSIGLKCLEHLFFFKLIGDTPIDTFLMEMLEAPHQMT

recombinant hVDR-LBD [1] = target: T4, recombinant hVDR-LBD (Homo sapiens, UniProt P11473); test: biochemical
T4 sequence (P11473 140-427): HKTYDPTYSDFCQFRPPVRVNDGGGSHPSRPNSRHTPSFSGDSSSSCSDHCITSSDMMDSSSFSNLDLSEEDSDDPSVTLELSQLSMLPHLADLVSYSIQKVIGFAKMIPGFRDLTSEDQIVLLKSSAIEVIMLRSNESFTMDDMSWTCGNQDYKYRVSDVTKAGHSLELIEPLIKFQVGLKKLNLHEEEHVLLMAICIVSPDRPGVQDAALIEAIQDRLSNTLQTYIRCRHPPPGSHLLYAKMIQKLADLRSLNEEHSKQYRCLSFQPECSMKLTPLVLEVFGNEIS

[2] = system: CYP24A1 expression in all cells (HEK293, SW480, U937, HaCaT, MG63, H292); test: CYP24A1 expression (RT-qPCR), all cells tested; conditions: 100 nM, 24 h
recombinant hVDR-LBD [3] = target: T4, recombinant hVDR-LBD; conditions: for fold lower activity of rapidly eluting epimer than the other 25-epimer: affinity for human VDR, within each 25-epimer pair; for VDR affinity, % of that of 1,25(OH)2D3: relative to 1,25(OH)2D3
[4] = system: human dedifferentiated fat (DFAT) cells; test: Osteogenic differentiation assay: ALP activity in human DFAT cells; format: cell-based; conditions: osteogenic medium, 100 nM, 7 days, natural hormone 1 = 100%
Method: Mature adipocytes from the adipose tissue of mammals such as humans and rodents can be dedifferentiated into pluripotent cells using ceiling culture. Dedifferentiated fat (DFAT) cells have potential applications in both regenerative medicine and injury healing, as well as mesenchymal stem cells, embryonic stem cells, and induced pluripotent stem cells. The osteogenic activity of vitamin D derivatives was assessed based on alkaline phosphatase (ALP) activity.
Samples of human subcutaneous adipose tissue were obtained from patients who underwent surgery in the Department of Pediatric Surgery at Nihon University Itabashi Hospital (Tokyo, Japan). The patients gave their written informed consent, and the Ethics Committee of Nihon University School of Medicine approved this study. We prepared dedifferentiated fat (DFAT) cells using the ceiling culture method, as described previously. Briefly, the adipose tissue (approximately 1 g) was cut into small pieces and digested with a 0.1% type I collagenase solution (Koken Co., Ltd., Tokyo, Japan). […] The cells that adhered to the upper surface of the flasks were cultured for conversion to dedifferentiated fat cells. […] Cells at passages 2–4 were used for differentiation experiments.
Cells were grown to confluency in 24-well plates and incubated for a week in DMEM containing 10% FBS, 100 nM dexamethasone (Merk), 10 mM β-glycerophosphate (Merk), and […] L-ascorbic acid-2-phosphate (Merk), with 100 nM of each compound. The induction medium was replaced on day 4. The alkaline phosphatase (ALP) activity in the cell lysates was determined on day 7 with a lab assay ALP kit (Fujifilm wako). The total protein content was determined with the BCA protein assay kit (Thermo Fisher Scientific). ALP levels were normalized to the total protein content.

VDR with SRC-1 = target: T5, VDR with SRC-1 (Homo sapiens, UniProt P11473); test: Mammalian two-hybrid assay, VDR binding to SRC-1
T5 sequence (P11473 1-427): T1 sequence (P11473 1-427)
T5 sequence (Q15788 595-771 partner limits assumed): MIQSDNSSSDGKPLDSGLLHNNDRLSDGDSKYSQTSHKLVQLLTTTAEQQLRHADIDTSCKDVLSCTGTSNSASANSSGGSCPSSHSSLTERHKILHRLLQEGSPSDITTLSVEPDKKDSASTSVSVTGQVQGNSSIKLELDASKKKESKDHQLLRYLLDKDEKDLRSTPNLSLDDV

[5] = system: CYP24A1 expression in U937 cells; test: CYP24A1 expression (RT-qPCR) in U937 cells; conditions: U937 blood cells, 100 nM, 24 h
[6] = system: CYP24A1 expression in H292 cells; test: CYP24A1 expression (RT-qPCR) in H292 cells; conditions: H292 lung cells, 100 nM, 24 h
[7] = system: CYP24A1 expression in HaCaT cells; test: CYP24A1 expression (RT-qPCR) in HaCaT cells; conditions: HaCaT skin cells, 100 nM, 24 h
[8] = system: CYP24A1 expression in SW480 cells; test: CYP24A1 expression (RT-qPCR) in SW480 cells; conditions: SW480 intestine cells, 100 nM, 24 h
[9] = system: CYP24A1 expression in MG63 cells; test: CYP24A1 expression (RT-qPCR) in MG63 cells; conditions: MG63 bone cells, 100 nM, 24 h
[10] = system: CYP24A1 expression in HEK293 cells; test: CYP24A1 expression (RT-qPCR) in HEK293 cells; conditions: HEK293 kidney cells, 100 nM, 24 h
[11] = read-out: Transcriptional activity EC50
[12] = this study, read-out: Transcriptional Activity EC50

SMILES | IC50 (VDR with NCoR) | Transcriptional activity efficacy (hVDR) | EC50 (hVDR; [11]) | Emax (hVDR; this study) | EC50 (hVDR; [12]) | EC50 (VDR with RXRα) | IC50 (recombinant hVDR-LBD [1]) | fold lower activity of rapidly eluting epimer than the other 25-epimer (recombinant hVDR-LBD [3]) | VDR affinity, % of that of 1,25(OH)2D3 (recombinant hVDR-LBD [3]) | EC50 (VDR with SRC-1) | CYP24A1 expression activity in all cells [2] | ALP activity [4] | CYP24A1 expression relative to natural hormone 1 [5] | CYP24A1 expression relative to natural hormone 1 [6] | CYP24A1 expression relative to natural hormone 1 [7] | CYP24A1 expression relative to natural hormone 1 [8] | CYP24A1 expression relative to natural hormone 1 [9] | CYP24A1 expression relative to natural hormone 1 [10]
C=C1[C@H](O)CC(=C/C=C2\CCC[C@]3(C)[C@@H]([C@H](C)CC#C[C@@](O)(CC)C45CC6CC(CC(C6)C4)C5)CC[C@@H]23)C[C@H]1O [ADKM3, (25R)-25-(1-Adamantyl)-1a,25-dihydroxy-26-methyl-2-methylidene-23-yne-19,27-dinorvitamin D3] | 6.3 nM | 90% | 2.33 nM | 90% | 2.3 nM | 1.1 nM | 6.7 nM | 5–11 fold | 6% | 10.2 nM | 10-50% | 40.4% | – | – | – | – | – | –
C=C1[C@H](O)CC(=C/C=C2\CCC[C@]3(C)[C@@H]([C@H](C)CC#C[C@@](O)(CCCC)C45CC6CC(CC(C6)C4)C5)CC[C@@H]23)C[C@H]1O [ADKM5, (25R)-25-(1-Adamantyl)-1α,25-dihydroxy-2-methylidene-26-propyl-23-yne-19,27-dinorvitamin D3] | 8.5 nM | 83% | 2.63 nM | 83% | 2.6 nM | 5.2 nM | 23.4 nM | 5–11 fold | 2% | 2.4 nM | 10-50% | 19% | – | – | – | – | – | –

These reach a lower IC50 (VDR with NCoR). Values come first.

IC50 (VDR with NCoR) | Transcriptional activity efficacy (hVDR) | EC50 (hVDR; [11]) | Emax (hVDR; this study) | EC50 (hVDR; [12]) | EC50 (VDR with RXRα) | IC50 (recombinant hVDR-LBD [1]) | fold lower activity of rapidly eluting epimer than the other 25-epimer (recombinant hVDR-LBD [3]) | VDR affinity, % of that of 1,25(OH)2D3 (recombinant hVDR-LBD [3]) | EC50 (VDR with SRC-1) | SMILES | CYP24A1 expression activity in all cells [2] | ALP activity [4] | CYP24A1 expression relative to natural hormone 1 [5] | CYP24A1 expression relative to natural hormone 1 [6] | CYP24A1 expression relative to natural hormone 1 [7] | CYP24A1 expression relative to natural hormone 1 [8] | CYP24A1 expression relative to natural hormone 1 [9] | CYP24A1 expression relative to natural hormone 1 [10]
2.3 nM | 78% | 0.53 nM | 78% | 0.5 nM | 1.1 nM | 6.2 nM | 5–11 fold | 6% | 8.4 nM | C=C1[C@H](O)CC(=C/C=C2\CCC[C@]3(C)[C@@H]([C@H](C)CC#C[C@](C)(O)C45CC6CC(CC(C6)C4)C5)CC[C@@H]23)C[C@H]1O [ADKM1, (25R)-25-(1-Adamantyl)-1α,25-dihydroxy-2-methylidene-23-yne-19,27-dinorvitamin D3] | 10-50% | 41% | – | – | – | – | – | –
0.4 nM | 101% | – | 101% | 0.2 nM | 0.1 nM | 0.6 nM | – | 67% | 0.6 nM | C=C1[C@H](O)CC(=C/C=C2\CCC[C@]3(C)[C@@H]([C@H](C)CC#C[C@@](C)(O)C45CC6CC(CC(C6)C4)C5)CC[C@@H]23)C[C@H]1O [ADKM2, (25S)-25-(1-Adamantyl)-1α,25-dihydroxy-2-methylidene-23-yne-19,27-dinorvitamin D3] | – | 98.8% | 77.8% | 50.1% | 85.6% | 42.3% | 63% | 33.2%
0.5 nM | 104% | – | 104% | 0.2 nM | 1.1 nM | 1.3 nM | – | 27% | 1.2 nM | C=C1[C@H](O)CC(=C/C=C2\CCC[C@]3(C)[C@@H]([C@H](C)CC#C[C@](O)(CC)C45CC6CC(CC(C6)C4)C5)CC[C@@H]23)C[C@H]1O [ADKM4, (25S)-25-(1-Adamantyl)-1a,25-dihydroxy-26-methyl-2-methylidene-23-yne-19,27-dinorvitamin D3] | – | 72.6% | 85.1% | 113% | 91.9% | 126% | 73.3% | 91.5%
